Paper PMC6112376, “Comprehensive Analyses and Prioritization of Tox21 10K Chemicals Affecting Mitochondrial Function by in-Depth Mechanistic Studies” (Environmental Health Perspectives, 2018)
Where two headings read alike, the source gives them in different places.

What was measured:
rat primary hepatocytes = test: MMP assay in rat primary hepatocytes; details: for IC50: read-out: MMP assays IC50 (µM) Rat Hepatocytes
HepG2 cells [1] = details: for IC50: read-out: MMP assays IC50 (µM) HepG2
HepG2 cells [2] = details: cited from earlier work
[3] = rat hepatocytes, mean ± SD of three experiments
[4] = HepG2 cells, single number from one experiment
[5] = read-out: MMP assays IC50 (µM), qHTS-HepG2
[6] = read-out: MMP assays IC50 (µM) qHTS-HepG2

Compound | IC50 (rat primary hepatocytes) [µM] | MMP assays efficacy (%) HepG2 (HepG2 cells [1]) [%] | MMP assays efficacy (%) qHTS-HepG2 (HepG2 cells [2]) | MMP assays efficacy (%) Rat Hepatocytes (rat primary hepatocytes; [3]) | IC50 (rat primary hepatocytes; [3]) [µM] | MMP assays efficacy (%) HepG2 (HepG2 cells [1]; [4]) | IC50 (HepG2 cells [1]; [4]) [µM] | IC50 (HepG2 cells [2]; [5]) [µM] | MMP assays IC50 (µM) Rat Hepatocytes (rat primary hepatocytes; [3]) | MMP assays IC50 (µM) HepG2 (HepG2 cells [1]; [4]) | MMP assays IC50 (µM) qHTS-HepG2 (HepG2 cells [2]) | IC50 (HepG2 cells [2]; [6]) [µM] | IC50 (HepG2 cells [1]) [µM] | IC50 (rat primary hepatocytes; Rattus norvegicus, Hepatocyte) [µM]
CCC(=C(CC)c1ccc(O)cc1)c1ccc(O)cc1 [(Z,E)-Diethylstilbestrol] | 42.8 ± 10.3 | -104 | -98±10% |  |  |  |  |  |  |  |  |  |  | 
CCCCCCCCCCCCCC[P+](CCCCCC)(CCCCCC)CCCCCC.N#C[N-]C#N |  |  | -103±9% | -81±9% | 31 ± 11.7 | -94% | 0.89 | 0.39 ± 0.19 |  |  |  |  |  | 
CC(C)c1ccccc1O [Compound 2-Isopropylphenol] |  |  | inactive | inactive |  | inactive |  |  | inactive | inactive | inactive |  |  | 
CC(C)(c1cc(Br)c(OCCO)c(Br)c1)c1cc(Br)c(OCCO)c(Br)c1 |  |  | -97±15% | -88±17% | 32.8 ± 2.67 | -99% | 11 |  |  |  |  | 6.21 ± 0.42 |  | 
CCCCCc1ccco1 [Compound 2-Pentylfuran] |  |  | -76±20% | inactive |  | inactive |  |  | inactive | inactive |  | 42.2 ± 2.81 |  | 
Cc1cc(Nc2ccc(O)cc2)ccc1N |  |  | -93±15% | inactive |  | -101% | 14.1 |  | inactive |  |  | 7.66 ± 0.88 |  | 
CCN(C(=O)N(CC)c1ccccc1)c1ccccc1 [N,Nφ-Diethylcarbanilide] |  |  | -69±23% | -58±11% | 13.1 ± 16.4 | inactive |  | 21.7 ± 38.2 |  | inactive |  |  |  | 
CCCCCCCC[n+]1ccn(C)c1.O=S(=O)([O-])C(F)(F)F [1-Methyl-3-octylimidazolium trifluoromethanesulfonate] |  |  | -58±19% | -82±36% | 31.6 | -84% | 15.8 |  |  |  |  | 8.38 ± 4.29 |  | 
CCCOc1ccc2nc(NC(=O)OC)sc2c1 [Tioxidazole] |  |  | -70±6% | -65±43% | 13 ± 1.06 | -62% | 15.5 | 7.5 ± 1.75 |  |  |  |  |  | 
O=C(O)C(=O)Cc1c[nH]c2ccccc12 [Indole-3-pyruvic acid] |  |  | -85±21% | -72±42% | 21.3 ± 17.9 | -89% | 11.2 | 28.9 ± 16.7 |  |  |  |  |  | 
CCC(=O)O[C@]1(C(=O)SCF)[C@H](C)C[C@H]2[C@@H]3C[C@H](F)C4=CC(=O)C=C[C@]4(C)[C@@]3(F)[C@@H](O)C[C@@]21C [Fluticasone propionate] |  |  | -58±17% | inactive |  | inactive |  | 9.02 ± 1.71 | inactive | inactive |  |  |  | 
CC(=O)OCCN(CCOC(C)=O)c1ccc(N=Nc2ccc([N+](=O)[O-])cc2C#N)cc1 [Disperse Red 82] |  |  | -87±5% | -59±9% | 11.7 ± 8.76 | -71% | 6.31 |  |  |  |  | 8 ± 1.45 |  | 
Cc1cc(N)c2cc(NC(=O)Nc3ccc4nc(C)cc(N)c4c3)ccc2n1.Cl.Cl [Aminoquinuride dihydrochloride] |  |  | -99±7% | inactive |  | -90% | 27.5 |  |  |  |  | 25 ± 4.09 |  | 
CC(C)(C)NCC(O)CSc1nc(-c2ccc(C(N)=O)s2)cs1.Cl (stereo not shown) [Arotinolol hydrochloride] |  |  | -64±8% | inactive |  | -88% | 27.5 |  | inactive |  |  | 17 ± 3.45 |  | 
CC(C)(c1cc(Br)c(O)c(Br)c1)c1cc(Br)c(O)c(Br)c1 [3,3φ,5,5φ-Tetrabromobisphenol A] |  |  | -123±2% | -76±30% | 36.9 ± 12.6 | -98% | 17.8 |  |  |  |  | 13.2 ± 12.2 |  | 
OC1CCCCCCCCCCC1 [Cyclododecanol] |  |  | -66±13% | inactive |  | inactive |  |  | inactive | inactive |  | 48.8 ± 3.84 |  | 
O=Cc1c2ccccc2c(Cl)c2ccccc12 [Compound 10-Chloro-9-anthraldehyde] |  |  | -82±26% | -47±21% | 24.3 ± 28.8 | inactive |  |  |  | inactive |  | 13.9 ± 7.82 |  | 

Compound | IC50 (rat primary hepatocytes) [µM] | MMP assays efficacy (%) HepG2 (HepG2 cells [1]) [%] | MMP assays efficacy (%) qHTS-HepG2 (HepG2 cells [2]) | MMP assays efficacy (%) Rat Hepatocytes (rat primary hepatocytes; [3]) | IC50 (rat primary hepatocytes; [3]) [µM] | MMP assays efficacy (%) HepG2 (HepG2 cells [1]; [4]) | IC50 (HepG2 cells [1]; [4]) [µM] | IC50 (HepG2 cells [2]; [5]) [µM] | MMP assays IC50 (µM) Rat Hepatocytes (rat primary hepatocytes; [3]) | MMP assays IC50 (µM) HepG2 (HepG2 cells [1]; [4]) | MMP assays IC50 (µM) qHTS-HepG2 (HepG2 cells [2]) | IC50 (HepG2 cells [2]; [6]) [µM] | IC50 (HepG2 cells [1]) [µM] | IC50 (rat primary hepatocytes; Rattus norvegicus, Hepatocyte) [µM]
CC(=O)Nc1ccc(NC(=S)NC(=O)c2ccc(C(C)(C)C)cc2)cc1 [Tenovin-1] |  |  | -115±19% | -41±18% | 18.4 ± 1.5 | -114% | 3.88 | 3.27 ± 2.74 |  |  |  |  |  | 
Diniconazole | 36 ± 28.6 |  |  |  |  |  |  |  |  |  |  | 12.2 ± 3.53 | 8.91 | 
CCCCCCCCCCCCCC[N+](C)(C)Cc1ccccc1.O.O.[Cl-] |  |  | -76±17% | inactive |  | -114% | 13.8 |  | inactive |  |  | 16.4 ± 4.28 |  | 
O=C(c1ccccc1)c1cc(Cl)ccc1O |  |  | -85±12% | -59±21% | 25.4 ± 21.3 | -98% | 39.8 |  |  |  |  | 29.1 ± 3.36 |  | 
CN(C)C(=O)Nc1ccccc1 [Fenuron] |  |  | inactive | inactive |  | inactive |  |  | inactive | inactive | inactive |  |  | 
CCCCCCCCCCn1cc[n+](C)c1.F[B-](F)(F)F [1-Decyl-3-methylimidazolium tetrafluoroborate] |  |  | -68±12% | -100±10% | 16.8 ± 7.73 | -104% | 7.08 |  |  |  |  | 3.87 |  | 
Verteporfin |  |  | -65±5% | -43±14% | 21.8 ± 7.79 | -127% | 8.69 | 3.27 ± 1.85 |  |  |  |  |  | 
O=CC=C(c1ccccc1)c1ccccc1 [2-Propenal,3,3-diphenyl-] |  |  | -87±29% | -78±36% | 17.1 ± 23.9 | -40% | 56.2 |  |  |  |  | 41.2 ± 19.3 |  | 
CCCCCCCC[N+](C)(CCCCCCCC)CCCCCCCC.[Cl-] [N-Methyl-N,N-dioctyloctan-1-aminium chloride] |  |  | -80±6% | -100±17% | 19.6 ± 4.89 | -89% | 10 | 2.73 ± 0.32 |  |  |  |  |  | 
Acriflavine hydrochloride | 3.55 ± 1.14 | -107 | -131±19% |  |  |  |  |  |  |  |  | 0.94 ± 0.44 | 0.44 | 
CCCCCCOc1ccccc1C(N)=O [Exalamide] |  |  | -73±11% | -59±17% |  | inactive |  |  |  | inactive |  | 9.81 ± 3 |  | 29.2 ± 2.37
O=C([O-])c1cc(=O)c2c3nc4ccccc4oc-3cc(=O)c2[nH]1.[Na+] [Pirenoxine sodium] |  |  | -54±10% | inactive |  | inactive |  | 21.1 ± 17.8 | inactive | inactive |  |  |  | 
Cc1cc(C(C)(C)C)c(O)c(C)c1Cn1c(=O)n(Cc2c(C)cc(C(C)(C)C)c(O)c2C)c(=O)n(Cc2c(C)cc(C(C)(C)C)c(O)c2C)c1=O |  |  | -98±4% | -40±24% | 26.8 ± 25.3 | -82% | 44.7 |  |  |  |  | 12.2 ± 2.84 |  | 
COC(=O)C1=C(C)NC(C)=C(C(=O)OCC(C)=O)C1c1ccccc1[N+](=O)[O-] (stereo not shown) [Aranidipine] |  |  | -56±6% | inactive |  | inactive |  |  | inactive | inactive |  | 12.8 ± 3.68 |  | 
CCCC(c1cc(C(C)(C)C)c(O)cc1C)c1cc(C(C)(C)C)c(O)cc1C |  |  | -106±11% | -61±15% | 21.1 ± 18.2 | -100% | 7.08 | 5.51 ± 1.58 |  |  |  |  |  | 
CCCCCCCC[N+](C)(CCCCCCCC)CCCCCCCC.O=S(=O)([O-])C(F)(F)F [Methyltrioctylammonium trifluoromethanesulfonate] |  |  | -86±9% | -73±33% | 11.4 ± 2.12 | -105% | 2.24 | 2.16 ± 0.72 |  |  |  |  |  | 
